Patent publication US20050182025A1, “Amidinylphenyl compounds and their use as fungicides” (priority 2002, published 2005)

Legend:
Type in all cases: in vivo
[1] = system: Septoria nodorum; experiment: Test C: preventive spray on wheat seedlings, Septoria glume blotch, disease rating; conditions: wheat seedlings sprayed to run-off, inoculated the following day with Septoria nodorum, 48 h saturated atmosphere then 9 days at 20° C.; test concentration not given
Source text: (§1) General protocol for preparing test suspensions: Test compounds were first dissolved in acetone in an amount equal to 3% of the final volume and then suspended at the desired concentration (in ppm) in acetone and purified water (50/50 mix) containing 250 ppm of the surfactant Trem® 014 (polyhydric alcohol esters). The resulting test suspensions were then used in the following tests. Spraying a 200 ppm test suspension to the point of run-off on the test plants was the equivalent of a rate of 500 g/ha. The test suspension was sprayed to the point of run-off on wheat seedlings. The following day the seedlings were inoculated with a spore suspension of Septoria nodorum (the causal agent of Septoria glume blotch) and incubated in a saturated atmosphere at 20° C. for 48 h, and then moved to a growth chamber at 20° C. for 9 days, after which disease ratings were made. Results for Tests A-C are given in Table A. In the table, a rating of 100 indicates 100% disease control and a rating of 0 indicates no disease control (relative to the controls). A dash (-) indicates no test results.

[2] = system: Puccinia recondita; experiment: Test B: preventive spray on wheat seedlings, wheat leaf rust, disease rating; conditions: wheat seedlings sprayed to run-off, inoculated the following day with Puccinia recondita, 24 h saturated atmosphere then 6 days at 20° C.; test concentration not given
Source text: as §1, with “Puccinia recondita” for “Septoria nodorum”, “wheat leaf rust)” for “Septoria glume blotch)”, “24” for “48”, “6” for “9”

[3] = system: Erysiphe graminis f. sp. tritici; experiment: Test A: preventive spray on wheat seedlings, wheat powdery mildew, disease rating; conditions: wheat seedlings sprayed to run-off, inoculated the following day with Erysiphe graminis f. sp. tritici, rated after 7 days at 20° C.; test concentration not given
Source text: as §1, with “spore dust” for “spore suspension”, “of Erysiphe graminis f. sp. tritici,” for “of Septoria nodorum”, “of wheat powdery mildew)” for “of Septoria glume blotch)”, “in” for “in a saturated atmosphere at 20° C. for 48 h, and then moved to”, “for 7” for “for 9”

SMILES	Test C disease control rating (100 = 100% disease control, 0 = no disease control relative to the controls) [1] [%]	Test B disease control rating (100 = 100% disease control, 0 = no disease control relative to the controls) [2] [%]	Test A disease control rating (100 = 100% disease control, 0 = no disease control relative to the controls) [3] [%]
Cc1cc(OCCOC(C)(C)C)c(C)cc1N=CN(C)C [Compound 41]	47	99	79
COC(=O)C(=Nc1cc(C)c(OCCC[Si](C)(C)C)cc1C)N(C)C [compound 128]	73	95	98
CCCCCCCOc1cc(C)c(N=CN(C)C)cc1C [Compound 21]	96	100	98
CCCC(CCC)Oc1cc(C)c(N=CN(C)C)cc1C [Compound 36]	0	100	88
Cc1cc(OCCC(C)CCCC(C)C)c(C)cc1N=CN(C)C (stereo not drawn) [Compound 10]	0	100	97
Cc1cc(OCCC(C)(C)C)c(C)cc1N=CN(C)C [Compound 12]	80	100	97
CCCC(CCC)Oc1cc(C)c(N=C(C)N(C)C)cc1C [compound 101]	100	100	100
CCCC(CCC(C)C)Oc1cc(C)c(N=C(C)N(C)C)cc1C (stereo not drawn) [compound 97]	85	45	0
CCCC(CCC)Sc1cc(C)c(N=CN(C)C)cc1C [compound 157]	99	96	0
Cc1cc(OCCCCC(C)(C)C#N)c(C)cc1N=CN(C)C [Compound 47]	80	99	29
CCN(C)C=Nc1cc(C)c(OCCC[Si](C)(C)C)cc1C [compound 196]	100	100	100
Cc1cc(OCCCC(C)C(C)C)c(C)cc1N=CN(C)C (stereo not drawn) [Compound 49]	83	99	99
Cc1cc(OC(C)CCC(C)C)c(C)cc1N=CN(C)C (stereo not drawn) [Compound 32]	95	100	97
CCN(C)C(=S)Nc1cc(Cl)c(OCCCC(C)(C)C)c(Cl)c1C [compound 122]	0	100	99
Cc1cc(OCCC(C)CC(C)(C)C)c(C)cc1N=CN(C)C (stereo not drawn) [Compound 11]	100	100	97
Cc1cc(OCCCC(C)C)c(C)cc1N=CN(C)C [Compound 13, N′-[2,5-Dimethyl-4-[(4-methylpentyl)oxy]-phenyl]-N,N-dimethylmethanimidamide]	100	100	97
CCCCCCCCCOc1cc(C)c(N=CN(C)C)cc1C [Compound 23]	13	98	97
Cc1cc(SC(C)CCC(C)C)c(C)cc1N=CN(C)C (stereo not drawn) [compound 105]	98	100	97
CC(=Nc1cc(Cl)c(OCCCC(C)C)c(Cl)c1C)N(C)C [compound 116]	100	92	87
CCCN(C)C=Nc1cc(Cl)c(OCCC[Si](C)(C)C)cc1C [compound 58]	100	100	100
CCCC(CCC(C)C)Nc1cc(C)c(N=CN(C)C)cc1C (stereo not drawn) [compound 148]	47	0	0
CC(C)CCCOc1cc(Cl)c(NC(=S)N(C)C)cc1Cl [compound 123]	100	46	54
Cc1cc(OCCCC(C)C)c(C)cc1NC(=S)N(C)C [compound 107]	99	99	60
CC(C)=CCC[C@@H](C)CCOc1cc(C)c(N=CN(C)C)cc1C [Compound 15]	0	100	94
CCCCCC(CCCCC)Oc1cc(C)c(N=C(C)N(C)C)cc1C [compound 99]	0	9	0
COC(C)(C)CCCOc1cc(C)c(N=CN(C)C)cc1C [Compound 43]	93	100	96
CN(C)C(=S)Nc1cc(Cl)c(OCCC[Si](C)(C)C)cc1Cl [compound 183]	90	85	99
